Test results reported in patent publication US12162820B2 (TAIWANJ PHARMACEUTICALS CO., LTD., priority 2019, dated 2024).

Key:
Assay type in all cases: biochemical
HDAC1 = target: T1, HDAC1 (Homo sapiens, UniProt Q13547); experiment: HDAC Inhibition Screening Assay (FLUOR DE LYS Fluorimetric Drug Discovery Kit), HDAC1; settings: for inhibition at 2 µM: 2 μM compound; for inhibition at 10 µM: 10 μM compound; for inhibition at 50 µM: 50 μM compound
T1 construct: purchased Enzo Life Sciences
Outline: (§1)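 Recombinant HDAC1, HDAC2 or HDAC3 was incubated with an acetyl-lysine fluorogenic substrate, and a developer was then added to release the fluorophore. Compounds were tested at 2, 10 and 50 μM, with fluorescence read at 360 or 485 nm excitation and 460 or 530 nm emission. Activity was expressed as a percentage of basal control minus baseline.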

HDAC2 = target: T2, HDAC2 (Homo sapiens, UniProt Q92769); experiment: HDAC Inhibition Screening Assay (FLUOR DE LYS Fluorimetric Drug Discovery Kit), HDAC2; settings: for inhibition at 2 µM: 2 μM compound; for inhibition at 10 µM: 10 μM compound; for inhibition at 50 µM: 50 μM compound
T2 construct: purchased Enzo Life Sciences
Outline: as §1

HDAC3 = target: T3, HDAC3 (Homo sapiens, UniProt O15379); experiment: HDAC Inhibition Screening Assay (FLUOR DE LYS Fluorimetric Drug Discovery Kit), HDAC3; settings: for inhibition at 2 µM: 2 μM compound; for inhibition at 10 µM: 10 μM compound; for inhibition at 50 µM: 50 μM compound
T3 construct: purchased Enzo Life Sciences
Outline: as §1

ATX (autotaxin) = target: T4, ATX (autotaxin) (Homo sapiens, UniProt Q13822); experiment: Autotaxin Inhibition Screening Assay (choline release from LPC, LPC-CR); settings: for inhibition at 4 µM: 4 μM compound; for inhibition at 20 µM: 20 μM compound; for inhibition at 50 µM: 50 μM compound
T4 construct: purchased Cayman 10803
Outline: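 20 ng ATX incubated with 100 μM 14:0 LPC in 50 mM Tris pH 8.0, 0.01% Triton X-100, 50 mM CaCl2, with choline oxidase/HRP/2 mM HVA coupling; compounds at 4, 20 and 50 μM. HVA fluorescence (ex/em 320/450 nm) read every 60 s for 90 min; inhibition % from slopes corrected for blank versus vehicle.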

T1 sequence (Q13547 whole entry): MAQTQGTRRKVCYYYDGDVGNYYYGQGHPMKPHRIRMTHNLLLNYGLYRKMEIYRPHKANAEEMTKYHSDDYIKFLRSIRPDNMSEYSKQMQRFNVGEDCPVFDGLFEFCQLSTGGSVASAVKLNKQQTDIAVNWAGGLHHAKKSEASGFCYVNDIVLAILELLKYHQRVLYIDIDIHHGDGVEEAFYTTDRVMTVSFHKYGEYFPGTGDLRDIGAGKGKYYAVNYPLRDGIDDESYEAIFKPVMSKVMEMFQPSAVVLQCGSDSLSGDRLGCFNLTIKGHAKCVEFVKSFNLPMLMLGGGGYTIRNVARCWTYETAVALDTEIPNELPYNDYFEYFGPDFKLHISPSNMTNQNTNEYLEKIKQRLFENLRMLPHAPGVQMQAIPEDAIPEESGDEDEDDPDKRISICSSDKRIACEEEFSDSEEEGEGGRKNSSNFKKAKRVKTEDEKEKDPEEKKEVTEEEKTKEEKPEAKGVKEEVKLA
T2 sequence (Q92769 whole entry): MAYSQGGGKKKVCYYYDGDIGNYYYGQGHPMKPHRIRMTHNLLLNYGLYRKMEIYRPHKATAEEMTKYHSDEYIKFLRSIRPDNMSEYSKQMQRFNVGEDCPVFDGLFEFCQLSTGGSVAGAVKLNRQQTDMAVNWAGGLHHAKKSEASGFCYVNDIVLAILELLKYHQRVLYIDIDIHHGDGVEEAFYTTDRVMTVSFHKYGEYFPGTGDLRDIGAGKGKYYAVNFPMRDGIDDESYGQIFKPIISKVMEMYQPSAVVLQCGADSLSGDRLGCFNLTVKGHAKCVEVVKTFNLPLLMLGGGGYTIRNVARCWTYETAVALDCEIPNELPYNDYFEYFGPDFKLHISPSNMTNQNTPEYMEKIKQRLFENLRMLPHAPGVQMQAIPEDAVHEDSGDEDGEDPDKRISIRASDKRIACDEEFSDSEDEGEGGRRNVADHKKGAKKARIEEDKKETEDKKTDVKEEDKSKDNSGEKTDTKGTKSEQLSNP
T3 sequence (O15379 whole entry): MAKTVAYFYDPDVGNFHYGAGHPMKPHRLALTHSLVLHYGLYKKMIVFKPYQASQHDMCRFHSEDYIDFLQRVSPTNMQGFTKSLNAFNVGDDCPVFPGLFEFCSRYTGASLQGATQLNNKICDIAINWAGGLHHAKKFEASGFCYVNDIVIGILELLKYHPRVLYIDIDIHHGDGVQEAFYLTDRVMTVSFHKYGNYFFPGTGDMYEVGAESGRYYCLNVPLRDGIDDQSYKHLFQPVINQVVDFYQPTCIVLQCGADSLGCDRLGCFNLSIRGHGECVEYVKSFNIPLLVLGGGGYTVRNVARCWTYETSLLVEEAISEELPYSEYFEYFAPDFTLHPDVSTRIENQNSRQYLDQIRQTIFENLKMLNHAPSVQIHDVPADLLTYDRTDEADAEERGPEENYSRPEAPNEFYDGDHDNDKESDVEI
T3 sequence (O75376 395-489 partner limits assumed): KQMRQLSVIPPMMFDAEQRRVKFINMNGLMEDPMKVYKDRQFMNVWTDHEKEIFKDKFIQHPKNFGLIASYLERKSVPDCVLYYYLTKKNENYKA

SMILES | inhibition at 2 µM (HDAC1) | inhibition at 10 µM (HDAC1) | inhibition at 50 µM (HDAC1) | inhibition at 2 µM (HDAC2) | inhibition at 10 µM (HDAC2) | inhibition at 50 µM (HDAC2) | inhibition at 2 µM (HDAC3) | inhibition at 10 µM (HDAC3) | inhibition at 50 µM (HDAC3) | inhibition at 4 µM (ATX (autotaxin)) | inhibition at 20 µM (ATX (autotaxin)) | inhibition at 50 µM (ATX (autotaxin))
Nc1cc(F)ccc1NC(=O)/C=C/c1ccc(COc2ccc3c(c2)CCCC3=O)cc1 [Compound 69, (E)-N-(2-amino-4-fluorophenyl)-3-(4-(((5-oxo-5,6,7,8-tetra-hydronaphthalen-2-yl)oxy)methyl)phenyl)acrylamide] | < 50% | < 50% | < 50% | < 50% | < 50% | 50 to 80% | < 50% | < 50% | < 50% | < 50% | < 50% | < 50%
O=C(CCCCCCC(=O)NC1CCCc2cc(Br)ccc21)NO (stereo not drawn) [Compound 46, N1-(6-bromo-1,2,3,4-tetrahydronaphthalen-1-yl)-N8-hydroxyoctanediamide] | < 50% | 50 to 80% | 50 to 80% | < 50% | 50 to 80% | > 80% | < 50% | < 50% | 50 to 80% | < 50% | < 50% | < 50%
COc1ccc(S(=O)(=O)NC2CCc3cc(/C=C/C(=O)Nc4ccc(F)cc4N)ccc32)cc1 (stereo not drawn) [Compound 19, (E)-N-(2-amino-4-fluorophenyl)-3-(1-((4-methoxyphenyl)sulfonamido)-2,3-dihydro-1H-inden-5-yl)acrylamide] | < 50% | < 50% | < 50% | < 50% | < 50% | < 50% | < 50% | < 50% | < 50% | < 50% | < 50% | < 50%
O=C(/C=C/c1ccc(COc2ccc3c(c2)CCC(Cc2cc(C(F)(F)F)cc(C(F)(F)F)c2)C3=O)cc1)NO (stereo not drawn) [Compound 73, (E)-3-(4-(((6-(3,5-bis(trifluoromethyl)benzyl)-5-oxo-5,6,7,8-tetrahydronaphthalen-2-yl)oxy)methyl)phenyl)-N-hydroxyacrylamide] | < 50% | < 50% | < 50% | < 50% | < 50% | < 50% | < 50% | < 50% | < 50% | < 50% | < 50% | < 50%
Nc1cc(F)ccc1NC(=O)CCCCCCC(=O)NC1CCc2cc(/C=C/C(=O)Nc3cc(Cl)cc(Cl)c3)ccc21 (stereo not drawn) [Compound 41] | < 50% | < 50% | < 50% | < 50% | < 50% | < 50% | < 50% | < 50% | < 50% | < 50% | < 50% | < 50%
CN(C)c1ccc(CCNC2CCc3cc(/C=C/C(=O)NO)ccc32)cc1 (stereo not drawn) [Compound 56, (E)-3-(1-((4-(dimethylamino)phenethyl)amino)-2,3-dihydro-1H-inden-5-yl)-N-hydroxyacrylamide] | > 80% | > 80% | > 80% | > 80% | > 80% | > 80% | > 80% | > 80% | > 80% | < 50% | < 50% | < 50%
O=C(/C=C/c1ccc2c(c1)CCC2NCCc1cc(Cl)cc(Cl)c1)NO (stereo not drawn) [Compound 55, (E)-3-(1-((3,5-dichlorophenethyl)amino)-2,3-dihydro-1H-inden-5-yl)-N-hydroxyacrylamide] | > 80% | > 80% | > 80% | > 80% | > 80% | > 80% | > 80% | > 80% | > 80% | < 50% | < 50% | < 50%

Continued, values first:

inhibition at 2 µM (HDAC1) | inhibition at 10 µM (HDAC1) | inhibition at 50 µM (HDAC1) | inhibition at 2 µM (HDAC2) | inhibition at 10 µM (HDAC2) | inhibition at 50 µM (HDAC2) | inhibition at 2 µM (HDAC3) | inhibition at 10 µM (HDAC3) | inhibition at 50 µM (HDAC3) | inhibition at 4 µM (ATX (autotaxin)) | inhibition at 20 µM (ATX (autotaxin)) | inhibition at 50 µM (ATX (autotaxin)) | SMILES
< 50% | < 50% | < 50% | < 50% | < 50% | < 50% | < 50% | < 50% | < 50% | < 50% | < 50% | < 50% | Nc1cc(F)ccc1NC(=O)CCCCCCC(=O)Nc1ccc2c(c1)CCC(Cc1cc(C(F)(F)F)cc(C(F)(F)F)c1)C2=O (stereo not drawn) [Compound 9, N1-(2-amino-4-fluorophenyl)-N8-(6-(3,5-bis(trifluoromethyl)benzyl)-5-oxo-5,6,7,8-tetrahydronaphthalen-2-yl)octanediamide]
> 80% | > 80% | > 80% | > 80% | > 80% | > 80% | > 80% | > 80% | > 80% | < 50% | < 50% | < 50% | COc1ccc(CCNC2CCc3cc(/C=C/C(=O)NO)ccc32)cc1 (stereo not drawn) [Compound 52, (E)-N-hydroxy-3-(1-((4-methoxyphenethyl)amino)-2,3-dihydro-1H-inden-5-yl)acrylamide]
< 50% | < 50% | < 50% | < 50% | < 50% | 50 to 80% | < 50% | < 50% | 50 to 80% | < 50% | < 50% | < 50% | Nc1cc(F)ccc1NC(=O)/C=C/c1ccc2c(c1)CCC2NCCC(=O)Nc1cc(C(F)(F)F)cc(C(F)(F)F)c1 (stereo not drawn) [Compound 49, (E)-N-(2-amino-4-fluorophenyl)-3-(1-((3-((3,5-bis(trifluoromethyl)phenyl)amino)-3-oxopropyl)amino)-2,3-dihydro-1H-inden-5-yl)acrylamide]
< 50% | 50 to 80% | > 80% | < 50% | 50 to 80% | > 80% | < 50% | < 50% | > 80% | > 80% | > 80% | > 80% | O=C(CCCCC(=O)Nc1ccc2c(c1)CC/C(=C\c1cc(C(F)(F)F)cc(C(F)(F)F)c1)C2=O)NO [Compound 14, (E)-N1-(6-(3,5-bis(trifluoromethyl)benzylidene)-5-oxo-5,6,7,8-tetrahydronaphthalen-2-yl)-N6-hydroxyadipamide]
< 50% | > 80% | > 80% | 50 to 80% | > 80% | > 80% | < 50% | 50 to 80% | > 80% | < 50% | < 50% | < 50% | O=C(/C=C/c1ccc2c(c1)CCCC2OCc1cc(C(F)(F)F)cc(C(F)(F)F)c1)NO (stereo not drawn) [Compound 36, (E)-3-(5-((3,5-bis(trifluoromethyl)benzyl)oxy)-5,6,7,8-tetrahydronaphthalen-2-yl)-N-hydroxy acrylamide]
< 50% | < 50% | < 50% | < 50% | < 50% | < 50% | < 50% | < 50% | < 50% | 50 to 80% | 50 to 80% | 50 to 80% | Nc1cc(F)ccc1NC(=O)/C=C/c1ccc2c(c1)CC/C(=C\c1cc(C(F)(F)F)cc(C(F)(F)F)c1)C2=O [Compound 6, (E)-N-(2-amino-4-fluorophenyl)-3-(6-((E)-3,5-bis(trifluoromethyl)benzylidene)-5-oxo-5,6,7,8-tetrahydronaphthalen-2-yl)acrylamide]
> 80% | > 80% | > 80% | > 80% | > 80% | > 80% | > 80% | > 80% | > 80% | < 50% | < 50% | < 50% | COc1ccc2c(c1)CCCC2NC(=O)CCCCCCC(=O)NO (stereo not drawn) [Compound 48, N^1-hydroxy-N^8-(6-methoxy-1,2,3,4-tetrahydronaphthalen-1-yl)octanediamide]
> 80% | > 80% | > 80% | > 80% | > 80% | > 80% | > 80% | > 80% | > 80% | < 50% | < 50% | < 50% | COc1ccc(N2C(=O)CN(C3CCc4cc(/C=C/C(=O)NO)ccc43)C2=O)cc1 (stereo not drawn) [Compound 38, (E)-N-hydroxy-3-(1-(3-(4-methoxyphenyl)-2,4-dioxoimidazolidin-1-yl)-2,3-dihydro-1H-inden-5-yl)acrylamide]
